Results: PubChem BioAssay AID2060499 (Molecular Pharmacology Branch, DTP, NCI, 2025)
Values joined by “and” are separate entries in the source; they are usually repeats but may differ in a detail not shown here. Equal entries are not always repeated.

System: 777334-354-R2-J4-PDC tumor spheroids with HUVEC/MSC, viability
Test: Anticancer human tumor 777334-354-R2-J4-PDC patient-derived pancreatic adenocarcinoma cell line growth inhibition [GQUAD]
Details: for viability, T/C: stronger effect = lower value
Source text: DNA G-quadruplex Stabilizer Agents in Combinations in Complex Spheroids
A high-throughput screen of multi-cell type tumor spheroids was designed to identify active combinations of DNA G-quadruplex stabilizer agents and targeted small molecules. Complex spheroids include a stromal component modeled by human endothelial cells (HUVEC) and fibroblasts modeled by human mesenchymal stem cells (MSCs). The concentration ranges selected for each drug and investigational agent were based upon clinically achievable concentrations if the clinical Cmax of the agent was known.
Compounds. The drugs and investigational agents: pidnarulex (CX-5461; NSC782164), APTO-253 (NSC789042), BRACO-19 (NSC847499), peposertib (NSC802822), ceralasertib (NSC780249), elimusertib (NSC800525), camonsertib (NSC841442), AZD-1390 (NSC803789), olaparib (NSC753686), talazoparib (NSC767125), ART-558 (NSC835418), sotorasib (NSC818433), MRTX-1133 (NSC836407), SN-38 (NSC673596), topotecan (NSC609699), etoposide (NSC141540), doxorubicin (NSC123127), gemcitabine (NSC613327), 5-fluorouracil (NSC19893), paclitaxel (NSC125973), vemurafenib (NSC761431), panobinostat (NSC761190), R-306465 (JNJ-16241199; NSC773264), adavosertib (NSC754352), TP-3654 (NSC805149), carboplatin (NSC241240), KSQ-4279 (NSC840948), and staurosporine (NSC755774) were obtained from the National Cancer Institute (NCI) Developmental Therapeutics Program Chemical Repository (34). The FDA-approved anticancer drug set is available from the NCI Developmental Therapeutics Program. […] The stock solutions were prepared in dimethyl sulfoxide (DMSO, Sigma-Aldrich, St. Louis, MO, cat. D2650) at 800-fold the tested concentration and stored at -70 degrees C prior to their use. All drugs and investigational agents were tested over a range starting from a high concentration at or near the clinical Cmax and decreasing in half-log increments. If the clinical Cmax for an agent had not been determined, the highest concentration tested was 10 microM.
2.3 Cell Culture. All cells were maintained in an incubator at 37 degrees C and 5% CO2 with 95% humidity. The PDC lines were cultured according to standard operating procedures established by the NCI PDMR. All PDCs were thawed and cultured in Matrigel-coated flasks prepared with a working solution of 1X Ham's F-12 nutrient mix, without supplementation (Invitrogen, cat. 11765054), 100 U/mL penicillin-streptomycin (Invitrogen, cat. 15140122), and 2.5% Matrigel (Corning Inc., cat. 354248) for the first three passages. The 857933-349-R-J2-PDC line was cultured in 6C/Colon 1B media, which includes advanced DMEM/F-12 (Thermo Fisher Scientific, cat. 12634028), 10 mM HEPES (Thermo Fisher Scientific, cat. 15630080), 1X GlutaMAX supplement (Thermo Fisher Scientific, cat. 35050061), 0.1 mg/mL primocin (InvivoGen, cat. ant-pm-2), 10% defined fetal bovine serum, heat inactivated (HyClone Laboratories Inc., cat. SH30070.03HI), 50% L-WRN conditioned media (ATCC, cat. CRL-3276), 1.25 mM N-Acetyl-L-cysteine (Sigma-Aldrich, cat. A9165), 10 mM nicotinamide (Sigma-Aldrich, cat. N0636), 1X B-27 supplement (Thermo Fisher Scientific, cat. 17504044), 1X N-2 supplement (Thermo Fisher Scientific, cat. 17502048), 10 microM Y-27632 dihydrochloride (Tocris Bioscience, cat. 1254), and 50 ng/mL human EGF recombinant protein (Thermo Fisher Scientific, cat. PHG0311). The 485176-168-R4-J1-PDC line was cultured in Panc media, which includes all 6C/Colon 1B media components plus 100 ng/mL human FGF-10 (Thermo Fisher Scientific, cat. 100-26), 500 nM SB-431542 (Selleckchem, cat. S1067), and gastrin (Tocris, cat. 3006).
[…]
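Further: spheroids exposed to compounds for 7 days before readout.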

**Q.** For `Cn1ncnc1[C@H]1c2n[nH]c(=O)c3cc(F)cc(c23)N[C@@H]1c1ccc(F)cc1`, which viability, T/C (compound 0.000999 µM) is on record?
**A.** 95.4% and 87.7% and 92.6%

**Q.** And the viability, T/C (compound 0.00316 µM)?
**A.** 103% and 99.5% and 94.9%

**Q.** And the viability, T/C (compound 0.00999 µM)?
**A.** 99% and 100% and 110%

**Q.** What about the viability, T/C (compound 0.0316 µM) of the same compound?
**A.** 87.2% and 95.5% and 87.8%

**Q.** And the viability, T/C (compound 0.0999 µM)?
**A.** 87.4% and 104% and 112%

**Q.** What about the viability, T/C (compound 0.316 µM) of the same compound?
**A.** 97.3% and 83.1% and 102%

**Q.** What about the IC50 (curve of compound) of the same compound?
**A.** > 0.316 µM

**Q.** What does the source list for `O=C(NO)c1cnc(N2CCN(S(=O)(=O)c3ccc4ccccc4c3)CC2)nc1` + CN(C)c1ccc(Nc2c3ccc(NC(=O)CCN4CCCC4)cc3nc3cc(NC(=O)CCN4CCCC4)ccc23)cc1?
**A.** IC50 (curve of first compound, second compound 0.0316 µM): 0.926 µM; IC50 (curve of first compound, second compound 0.1 µM): 1.29 µM; IC50 (curve of first compound, second compound 0.316 µM): 1.07 µM; IC50 (curve of first compound, second compound 1 µM): 0.852 µM; IC50 (curve of first compound, second compound 3.16 µM): 0.954 µM; IC50 (curve of first compound, second compound 10 µM): 1.01 µM; viability, T/C (second compound 0.0316 µM, first compound 0.0316 µM): 103%; viability, T/C (second compound 0.0316 µM, first compound 0.1 µM): 89.5%; viability, T/C (second compound 0.0316 µM, first compound 0.316 µM): 79.4%; viability, T/C (second compound 0.0316 µM, first compound 1 µM): 50.8%; viability, T/C (second compound 0.0316 µM, first compound 3.16 µM): 11.1%; viability, T/C (second compound 0.0316 µM, first compound 10 µM): 0.3%; viability, T/C (second compound 0.1 µM, first compound 0.0316 µM): 91.5%; viability, T/C (second compound 0.1 µM, first compound 0.1 µM): 90.6%; viability, T/C (second compound 0.1 µM, first compound 0.316 µM): 83.5%; viability, T/C (second compound 0.1 µM, first compound 1 µM): 62.3%; viability, T/C (second compound 0.1 µM, first compound 3.16 µM): 8.7%; viability, T/C (second compound 0.1 µM, first compound 10 µM): 1.67%; viability, T/C (second compound 0.316 µM, first compound 0.0316 µM): 86.8%; viability, T/C (second compound 0.316 µM, first compound 0.1 µM): 94.7%; viability, T/C (second compound 0.316 µM, first compound 0.316 µM): 76.6%; viability, T/C (second compound 0.316 µM, first compound 1 µM): 54.8%; viability, T/C (second compound 0.316 µM, first compound 3.16 µM): 10.9%; viability, T/C (second compound 0.316 µM, first compound 10 µM): 2.03%; viability, T/C (second compound 1 µM, first compound 0.0316 µM): 84.3%; viability, T/C (second compound 1 µM, first compound 0.1 µM): 80.8%; viability, T/C (second compound 1 µM, first compound 0.316 µM): 62.5%; viability, T/C (second compound 1 µM, first compound 1 µM): 54.2%; viability, T/C (second compound 1 µM, first compound 3.16 µM): 12%; viability, T/C (second compound 1 µM, first compound 10 µM): 0.73%; viability, T/C (second compound 3.16 µM, first compound 0.0316 µM): 86.3%; viability, T/C (second compound 3.16 µM, first compound 0.1 µM): 72.1%; viability, T/C (second compound 3.16 µM, first compound 0.316 µM): 65.9%; viability, T/C (second compound 3.16 µM, first compound 1 µM): 54%; viability, T/C (second compound 3.16 µM, first compound 3.16 µM): 10.9%; viability, T/C (second compound 3.16 µM, first compound 10 µM): 0.96%; viability, T/C (second compound 10 µM, first compound 0.0316 µM): 66%; viability, T/C (second compound 10 µM, first compound 0.1 µM): 65.3%; viability, T/C (second compound 10 µM, first compound 0.316 µM): 63.1%; viability, T/C (second compound 10 µM, first compound 1 µM): 50.4%; viability, T/C (second compound 10 µM, first compound 3.16 µM): 11.1%; viability, T/C (second compound 10 µM, first compound 10 µM): 0.95%

**Q.** What does the source list for `CC1COCCN1c1cc(C2(O)CC3CCC(C2)O3)c2cnn(-c3ccn[nH]3)c2n1` (stereo unspecified)?
**A.** viability, T/C (compound 0.0316 µM): 93.3% and 104% and 95%; viability, T/C (compound 0.1 µM): 76.1% and 79.5% and 78.4%; viability, T/C (compound 0.316 µM): 52.4% and 54.4% and 51.5%; viability, T/C (compound 1 µM): 39.1% and 38.5% and 37.8%; viability, T/C (compound 3.16 µM): 30.1% and 36.1% and 34.6%; viability, T/C (compound 10 µM): 20.1% and 19.8% and 21.7%; IC50 (curve of compound): 0.447 µM and 0.516 µM and 0.435 µM

**Q.** What does the source list for `Cc1[nH]c2ccc(F)cc2c1-c1nc2c3cccnc3c3ncccc3c2[nH]1`?
**A.** viability, T/C (compound 0.0316 µM): 101% [middle of 12 runs]; viability, T/C (compound 0.1 µM): 98% [middle of 12 runs]; viability, T/C (compound 0.316 µM): 97.4% [middle of 11 runs]; viability, T/C (compound 1 µM): 86.4% [middle of 12 runs]; viability, T/C (compound 3.16 µM): 43.9% [middle of 12 runs]; IC50 (compound alone, run of 03/18/2024): 2.51 µM [middle of 7 runs]

**Q.** Which viability, T/C (compound 0.0316 µM) does the source give for `C=CC(=O)N1CCN(c2nc(=O)n(-c3c(C)ccnc3C(C)C)c3nc(-c4c(O)cccc4F)c(F)cc23)C(C)C1` (stereo unspecified) here?
**A.** 87.7% and 105% and 106%

**Q.** And the viability, T/C (compound 0.1 µM)?
**A.** 103% and 97.4% and 81.4%

**Q.** And the viability, T/C (compound 0.316 µM)?
**A.** 95.8% and 89.4% and 109%

**Q.** And the viability, T/C (compound 1 µM)?
**A.** 96.2% and 111% and 105%

**Q.** And the viability, T/C (compound 3.16 µM)?
**A.** 113% (2×) and 100%

**Q.** And the viability, T/C (compound 10 µM)?
**A.** 115% and 100% and 101%

**Q.** And the IC50 (curve of compound)?
**A.** > 10 µM

**Q.** What does the source list for `O=C(c1cc(Cc2n[nH]c(=O)c3ccccc23)ccc1F)N1CCN(C(=O)C2CC2)CC1`?
**A.** viability, T/C (compound 0.0316 µM): 92.5% and 109% and 99%; viability, T/C (compound 0.1 µM): 111% and 84% and 105%; viability, T/C (compound 0.316 µM): 96.9% and 103% and 102%; viability, T/C (compound 1 µM): 84.4% and 89.3% and 94.1%; viability, T/C (compound 3.16 µM): 88.8% and 76.5% and 101%; viability, T/C (compound 10 µM): 77.2% and 75.9% and 79.5%; IC50 (curve of compound): > 10 µM
